Like-named read-outs stand apart in the source and are kept apart here.
Legend:
[1] = test system: GFP-A549 human lung cancer cells
Experimental: Experimental animals were held in nose-only air-tight tubes for designated time intervals.
Inhalation treatment was resumed 2 days post-surgery and continued for 6 weeks when mice were euthanized, and blood and lung tissues were collected. Luminosity of the GFP-A549 tumors was measured and the lungs were weighed.

[2] = for Total drug levels (PS V plus its metabolites): plasma
[3] = set-up: unit not given beside the values; details: mouse, in vivo, inhaled or intranasal
lung cancer = details: curcumin as a single agent, pre-clinical models of lung cancer; cited from earlier work

For `CCOP(=O)(OCC)OCCCCOC(=O)CC1=C(C)/C(=C/c2ccc([S+](C)[O-])cc2)c2ccc(F)cc21` (stereo not drawn) [PS V, phospho-sulindac], the “tumor size by luminosity” value ([1]; at sacrifice, Mean±SEM, control = 19.85±4.33, p < 0.001) was 5.05±2.97, the “tumor size by lung weight” value ([1]; at sacrifice, Mean±SEM, control = 385.7±85.2 mg, p < 0.001) was 204.4 ± 39.4 mg and the death rate ([1]; end of the study, aerosol of 50 mg/mL PS V for 8 min, control group 40 %, p < 0.03) was “less than 10%”. The “level of intact PS V in the lungs” value ([2]; inhalational, 6.5 mg/kg body weight) was greater than 20 nmol/g, the “level of intact PS V in the lungs” value ([2]; oral administration, 150 mg/kg body weight) was less than 2 nmol/g and the “Total drug levels (PS V plus its metabolites)” value ([2]; after inhalation treatment, 6.5 mg/kg) was 17 µM. For the same molecule, the “Total drug levels (PS V plus its metabolites)” value ([2]; after oral administration, 150 mg/kg) was 348 µM.
`CC1=C(CC(=O)O)c2cc(F)ccc2/C1=C\c1ccc([S+](C)[O-])cc1` (stereo not drawn) [Sulindac, sulindac] gave an AUC [3] of 30.1.
For `COc1cc(/C=C/C(=O)CC(=O)/C=C/c2ccc(O)c(OC)c2)ccc1O` [curcumin], the efficacy (lung cancer) is given as less than 30%.

— patent publication EP2711006A1, “Product Comprising a Nicotine-Containing Material and an Anti-Cancer Agent” (Rigas, Basil, priority 2012, dated 2014)
